Data reported in patent US10660789B2, “1,4-dihydropyridine derivatives with HSP modulating activity” (Richter Gedeon NYRT., priority 2011, dated 2020).
Where a name gives a salt, the structure may show the parent alone.

Experiments:
Hsp70 promoter = test: Hsp promoter probing, Hsp70 promoter-YFP reporter, flow cytometry (Table 3); format: cell-based, mouse and human; set-up: key: +: co-inducing activity; −: silencing activity; 0: with the experimental methods applied no other HSP modulating effects could be identified; settings: heat shock 42° C. 1 h, 16 h recovery; B16 or SHSY5Y reporter cells, cell line per value not stated
Method: (§1) The Hsp co-inducing effect of the compounds on stress response was tested on B16 mouse melanoma and SHSY5Y human neuroblastoma cell lines stably transfected with Hsp promoter probing plasmids. This kind of promoter probing, using the promoter region of a given gene conjugated with fluorescent protein is used as a best and fastest test system for finding drugs which modulate the activity of the gene followed by the given promoter (Wyshocka et al., Mol. Cel. Biochem. 215:153-156, 2000).
The Hsp encoding genes are transactivated through the binding of HSF to the heat shock element found on the DNA upstream of the Hsp genes, in the so called promoter region. In the absence of heat stress, the heat shock factors are present as monomers. Upon heat stress, however, the heat shock factors form trimers, which are the active components, able to bind to heat shock elements. Once HSF is bound to the heat shock element in the promoter of Hsp genes, the gene following the promoter region is transcriptionally active.
(§2) Reporter plasmids, containing the Hsp70 and/or Hsp25 promoter conjugated to either YFP or GFP (yellow or green fluorescent protein), were stably transfected into the cells and the expression of YFP or GFP was followed by flow cytometry. Cells were either kept at 37° C. or exposed to heat shock at 42° C. for 1 hour followed by a 16 hour recovery period at 37° C. in the presence or absence of different concentrations of the test compound. After recovery the expression of YFP or GFP which is in straight correlation with the promoter activity of Hsp70 or Hsp27 genes was followed by measuring the fluorescence intensity of the cells by flow cytometry. Fluorescence intensity is in straight correlation with the amount of fluorescent protein (GFP or YFP) produced under the control of hsp promoter. The mean fluorescence intensity of YFP or GFP produced is shown as “Hsp promoter activity”.
(§3) Cells were homogenously distributed on 6-well plates in 1×10^5 cells/well density. B16-pHsp25-GFP and B16-pHsp70-YFP melanoma cells were grown in RPMI-1640 medium supplemented with 10% Fetal bovine serum (FBS), penicillin (200 units/ml), streptomycin (200 μg/ml) and 2 mM L-Glutamine. For maintaining the SH-SY5Y-pHsp25-GFP and SH-SY5YpHsp70-YFP neuroblastoma cell lines Dulbecco's modified Eagle's medium (DMEM-F-12) containing 10% FBS, 2 mM L-Glutamine, penicillin (200 units/ml), streptomycin (200 μg/ml) and MEM non-essential amino acids were used. Before the treatments both cell lines were incubated at 37° C. in a saturated humidity atmosphere containing 95% air and 5% CO2. After 24 h incubation cells were pretreated with compounds of the invention in four different concentrations (usually in 3; 10; 20 and 50 μM) 30 min before the heat shock at 42° C. for 1 h and then incubated further at 37° C. for 16 h (recovery period). After this procedure cells were trypsinized and suspensed in 500 μl serum-free DMEM-F12 medium. The changes in cells' fluorescence were detected using BD FACSCalibur flow cytometer.

other Hsps = test: Other in vitro HSP modulating effects (Table 3); format: cell-based, mouse and human; set-up: key: +: co-inducing activity; −: silencing activity; 0: with the experimental methods applied no other HSP modulating effects could be identified
Method: as §1, §2, §3
SY-SY5Y and B16 cells were extracted in NP-40 lysis buffer (PBS pH 7.4, 1% protease inhibitor coctail and 1% Triton X-100). The cell extracts were then constantly agitated at 4° C. for 2 h. The cell extracts were centrifuged at 12000×g for 30 min and supernatants were saved. After the protein concentration measurement 15 μg of total protein was separated by sodium dodecyl sulfate-polyacrylamide gel electrophoresis (SDS-PAGE) under reducing conditions according to the method of Laemmli. Proteins were blotted onto PVDF membrane. The blot was incubated overnight at 4° C. in the presence of mouse α-Hsp25, α-Hsp70, α-Hsp60 és α-Hsp90 monoclonal antibodies diluted in PBS. Then, the membrane was washed three times in PBS-0.05% Tween and incubated for 1 h in peroxidase-conjugated anti-mouse IgG antibody diluted 1:50000 in PBS containing 3% non-fat dry milk. The immune complexes were detected with chemo-luminescent substrate of peroxidase according to the supplier's instructions. Images taken from the membranes were analyzed using AlphaEase FC software.

SMILES | Hsp70 modulation (Hsp70 promoter) | melting point | Other in vitro effects (other Hsps)
CCOC(=O)C1=CN(C2CC2)C=C(C(=O)OCC)C1c1ccc(C(F)(F)F)cc1 [Example 33, Diethyl 1-cyclopropyl-4-(4-trifluoromethylphenyl)-1,4-dihydro-pyridine-3,5-dicarboxylate] | + | 123 to 124 °C | 0
COC(=O)C1=C(C)N(C)C(CCN2CCc3cc(OC)c(OC)cc3C2)=C(C(=O)OC)C1c1ccc(C(F)(F)F)cc1.Cl (centres unmarked) [Example 41, Dimethyl 2-[2-(6,7-dimethoxy-1,2,3,4-tetrahydroisoquinolin-2-yl)-ethyl]-1,6-dimethyl-4-(4-trifluoromethylphenyl)-1,4-dihydropyridine-3,5-dicarboxylate hydrochloride] | + | 176 to 181 °C | 0
COC(=O)C1=C(C)N(C)C(C)=C(C(=O)OC)C1c1cccnc1 [Example 12, Dimethyl 1,2,6-trimethyl-4-(3-piridyl)-1,4-dihydropyridine-3,5-dicarboxylate] | − | 173 to 175 °C | 0
COC(=O)C1=C(CCN(C)C)N(C)C(CCN(C)C)=C(C(=O)OC)C1c1cc(F)cc(F)c1 [Example 25, Dimethyl 4-(3,5-Difluorophenyl)-2,6-bis-(2-dimethylaminoethyl)-1-methyl-1,4-dihydropyridine-3,5-dicarboxylate dihydrochloride] | + |  | 0
COC(=O)C1=C(C)N(C)C(C#N)=C(C(=O)OC)C1c1ccc(C(F)(F)F)cc1 (centres unmarked) [Example 47, Dimethyl 2-cyano-1,6-dimethyl-4-(4-trifluoromethylphenyl)-1,4-dihydropyridine-3,5-dicarboxylate] | + | 129 to 132 °C | 0
COC(=O)C1=C(CCN(C)C)N(C)C(CCN2CCc3cc(OC)c(OC)cc3C2)=C(C(=O)OC)C1c1ccc(C(F)(F)F)cc1 (centres unmarked) [Example 42, Dimethyl 2-[2-(6,7-dimethoxy-1,2,3,4-tetrahydroisoquinolin-2-yl)-ethyl]-6-(2-dimethylamino-ethyl)-1-methyl-4-(4-trifluoromethylphenyl)-1,4-dihydropyridine-3,5-dicarboxylate dihydrochloride] | + |  | 0
COC(=O)C1=C(C)N(C)C(C)=C(C(=O)OC)C1c1cccc(C(F)(F)F)c1 [Example 7, Dimethyl 1,2,6-trimethyl-4-(3-trifluoromethylphenyl)-1,4-dihydropyridine-3,5-dicarboxylate] | + | 118 to 119 °C | 0
COC(=O)C1=C(C)N(C)C(C)=C(C(=O)OC)C1c1cc(F)cc(F)c1 [Example 24, Dimethyl 4-(3,5-difluorophenyl)-1,2,6-trimethyl-1,4-dihydropyridine-3,5-dicarboxylate] | + | 167 to 168 °C | 0
COC(=O)C1=C(C)N(C)C(C)=C(C(=O)OC)C1c1ccc(F)cc1 [Example 2, Dimethyl 1,2,6-trimethyl-4-(4-fluorophenyl)-1,4-dihydropyridine-3,5-dicarboxylate] | + | 184 to 185 °C | 0
COC(=O)C1=C(C)N(C)C(C)=C(C(=O)OC)C1c1ccccc1 [Example 3, Dimethyl 1,2,6-trimethyl-4-phenyl-1,4-dihydropyridine-3,5-dicarboxylate] | + | 201 to 203 °C | 0
CCOC(=O)C1=CN(Cc2ccccc2)C=C(C(=O)OCC)C1c1ccc(C(F)(F)F)cc1 [Example 34] | + | 107 to 108 °C | 0
COC(=O)C1=C(C)N(C)C(CCN2CCc3ccccc3C2)=C(C(=O)OC)C1c1ccc(C(F)(F)F)cc1.O=C(O)/C=C/C(=O)O (centres unmarked) [Example 40, Dimethyl 2-[2-(1,2,3,4-tetrahidroisoquinolin-2-yl)-ethyl]-1,6-dimethyl-4-(4-trifluoromethyl-phenyl)-1,4-dihydropyridine-3,5-dicarboxylate fumarate] | + | 186 to 188 °C | 0
COC(=O)C1=C(C)N(C)C(C)=C(C(=O)OC)C1c1ccc(-n2ccnc2)cc1 [Example 10, Dimethyl 1,2,6-trimethyl-4-(4-(1-imidazoly)lphenyl)-1,4-dihydropyridine-3,5-dicarboxylate] | + | 201 to 202 °C | 0
O=C(O)C1=CN(Cc2ccccc2)C=C(C(=O)O)C1c1ccccc1 [Example 39, 1-Benzyl-4-phenyl-1,4-dihydropyridine-3,5-dicarboxylic acid] | − | 204 to 206 °C | 0
COC(=O)C1=C(C)N(C)C(C)=C(C(=O)OC)C1c1ccsc1 [Example 45, Dimethyl 1,2,6-Trimethyl-4-(thiophen-3-yl)-1,4-dihydropyridine-3,5-dicarboxylate] | + | 187 to 189 °C | 0
CCOC(=O)C1=CN(C)C=C(C(=O)OCC)C1c1ccc(C(F)(F)F)cc1 [Example 37, Diethyl 1-methyl-4-(4-trifluoromethylphenyl)-1,4-dihydropyridine-3,5-dicarboxylate] | + | 94 to 96 °C | 0
COC(=O)C1=C(C)N(C)C(C)=C(C(=O)OC)C1c1ccco1 [Example 44, Dimethyl 4-(furan-2-yl-1,2,6-trimethyl-1,4-dihydropyridine-3,5-dicarboxylate] | + | 142 to 143 °C | 0
CCOC(=O)C1=CN(Cc2ccccc2)C=C(C(=O)OCC)C1c1ccccc1 [Example 38, Diethyl 1-benzyl-4-phenyl-1,4-dihydropyridine-3,5-dicarboxylate, reference compound] | + |  | 0
COC(=O)C1=C(CCN(C)C)N(C)C(CCN2CCCCC2)=C(C(=O)OC)C1c1ccc(C(F)(F)F)cc1 (centres unmarked) [Example 30, Dimethyl 2-(2-dimethylamino-ethyl)-1-methyl-6-(2-piperidin-1-yl-ethyl)-4-(4-trifluoromethylphenyl)-1,4-dihydropyridine-3,5-dicarboxylate dihydrochloride] | + |  | 0
CCOC(=O)C1=C(C)N(C)C(C)=C(C(=O)OC)C1c1ccc(C(F)(F)F)cc1 (centres unmarked) [Example 32] | + | 146 to 149 °C | 0
COC(=O)C1=C(C)N(C)C(C)=C(C(=O)OC)C1c1ccccc1C(F)(F)F [Example 8, Dimethyl 1,2,6-trimethyl-4-(2-trifluoromethylphenyl)-1,4-dihydropyridine-3,5-dicarboxylate] | + | 168 to 170 °C | 0
